This passage reports Ki and melting point results from US7723329B2, “Substituted-3-sulfonylindazole derivatives as 5-hydroxytryptamine-6 ligands” (Wyeth LLC, priority 2005, dated 2010).

Where a name gives a salt, the structure may show the parent alone. A value given as a limit tells only on which side of the number the result lay.

The target in one data set is T1, human cloned 5-HT6 receptors (Homo sapiens, UniProt P50406).
T1 construct: expressed in transfected cells; host or cells: HeLa cells
T1 sequence (P50406 whole entry): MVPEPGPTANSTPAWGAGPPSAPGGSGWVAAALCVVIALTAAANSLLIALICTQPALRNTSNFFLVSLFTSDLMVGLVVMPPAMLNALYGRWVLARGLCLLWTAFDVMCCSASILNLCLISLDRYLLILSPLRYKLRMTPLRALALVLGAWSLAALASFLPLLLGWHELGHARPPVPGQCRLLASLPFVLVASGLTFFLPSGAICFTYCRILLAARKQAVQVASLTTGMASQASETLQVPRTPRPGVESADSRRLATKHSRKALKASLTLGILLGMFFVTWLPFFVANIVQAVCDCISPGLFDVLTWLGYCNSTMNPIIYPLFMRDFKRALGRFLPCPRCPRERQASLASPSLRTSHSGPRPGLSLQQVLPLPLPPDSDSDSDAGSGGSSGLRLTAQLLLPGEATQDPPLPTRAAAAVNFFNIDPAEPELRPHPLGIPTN
The data set is described as follows: 5-HT6 binding affinity, [3H]-LSD displacement. Conditions: membranes of Hela cells expressing human cloned 5-HT6 receptors; [3H]-LSD 3.0 nM; 120 minutes at room temperature.
The term Ki denotes a dissociation constant, usually derived from enzyme kinetics or from competition with a known ligand. As for `C[C@@H]1CN(Cc2ccc3[nH]nc(S(=O)(=O)c4cccc5ccccc45)c3c2)CCN1` [Example 200], the Ki lay in the range of 0.01 to 10 nM.
On the same count and under the same terms, under `NCCOc1cc(F)cc2c(S(=O)(=O)c3cccc4ccccc34)nn(Cc3cccc(Cl)c3)c12` [Example 106, (2-{[1-(3-Chlorobenzyl)-5-fluoro-3-(1-naphthylsulfonyl)-1H-indazol-7-yl]oxy}ethyl)amine] stands greater than 45 nM; under `CN(C)CCc1ccc2[nH]nc(S(=O)(=O)c3ccccc3)c2c1` [Example 176, N,N-Dimethyl-N-{2-[3-(phenylsulfonyl)-1H-indazol-5-yl]ethyl}amine hydrochloride], 11 to 25 nM.
Compound `NCCCCc1ccc2[nH]nc(S(=O)(=O)c3ccccc3)c2c1` [Example 181, {4-[3-(Phenylsulfonyl)-1H-indazol-5-yl]butyl}amine hydrochloride] returned a Ki of 26 to 35 nM.
Still for that read-out and setting: under `CCN(CC)CCCCOc1ccc2[nH]nc(S(=O)(=O)c3cccc4ccccc34)c2c1` [Example 66] stands 0.01 to 10 nM; under `O=C(CCN1CCCCC1)Nc1cccc2c(S(=O)(=O)c3cccc4ccccc34)n[nH]c12` [Example 163, N-[3-(Naphthalene-1-sulfonyl)-1H-indazol-7-yl]-3-piperidin-1-yl-propionamide hydrochloride], 11 to 25 nM.
Still for that read-out and setting: under `CNCCOc1cccc2c(S(=O)(=O)c3ccccc3)nn(C)c12` [Example 101] stands 11 to 25 nM; under `O=S(=O)(c1cccc2ccccc12)c1n[nH]c2cc(OCCN3CCCC3)ccc12` [Example 150], greater than 45 nM; under `CC(C)NCCOc1ccc2[nH]nc(S(=O)(=O)c3cccc4ccccc34)c2c1` [Example 28, Isopropyl-{2-[3-(naphthalene-1-sulfonyl)-1H-indazol-5-yloxy]-ethyl}-amine], 0.01 to 10 nM.
On the same count and under the same terms, the figure for `CCN(C)CCOc1ccc2[nH]nc(S(=O)(=O)c3cccc4ccccc34)c2c1` [Example 29, Ethyl-methyl-{2-[3-(naphthalene-1-sulfonyl)-1H-indazol-5-yloxy]-ethyl}-amine] is 0.01 to 10 nM; for `CNCCOc1ccc2c(c1)c(S(=O)(=O)c1cccc3ccccc13)nn2Cc1ccccc1` [Example 48, {2-[1-Benzyl-3-(naphthalene-1-sulfonyl)-1H-indazol-5-yloxy]-ethyl}-methyl-amine] it is 26 to 35 nM; for `CNCCc1cccc2c(S(=O)(=O)c3ccccc3)n[nH]c12` [Example 173, N-Methyl-N-{2-[3-(phenylsulfonyl)-1H-indazol-7-yl]ethyl}amine trifluoroacetate] it is 0.01 to 10 nM.
Consider `CNCCOc1cccc2c(S(=O)(=O)c3cccc4ccccc34)n[nH]c12` [Example 77], for which the Ki was in the range of 0.01 to 10 nM.
On the same count and under the same terms, under `CCN(C)CCOc1ccc2c(c1)c(S(=O)(=O)c1cccc3ccccc13)nn2C` [Example 42, Ethyl-methyl-{2-[1-methyl-3-(naphthalene-1-sulfonyl)-1H-indazol-5-yloxy]-ethyl}-amine] stands 0.01 to 10 nM.
Same read-out and setting: under `CCCCNCCCOc1ccc2[nH]nc(S(=O)(=O)c3cccc4ccccc34)c2c1` [Example 19, Butyl-{3-[3-(naphthalene-1-sulfonyl)-1H-indazol-5-yloxy]-propyl}-amine] stands 0.01 to 10 nM; under `CC(C)NCCOc1ccc2c(c1)c(S(=O)(=O)c1cccc3ccccc13)nn2Cc1ccccc1` [Example 49, {2-[1-Benzyl-3-(naphthalene-1-sulfonyl)-1H-indazol-5-yloxy]-ethyl}-isopropyl-amine], 26 to 35 nM; under `CCN(CC)CCC(=O)Nc1ccc2c(S(=O)(=O)c3cccc4ccccc34)n[nH]c2c1` [Example 169, 3-Diethylamino-N-[3-(naphthalene-1-sulfonyl)-1H-indazol-6-yl]-propionamide hydrochloride], greater than 45 nM.
In turn, `O=S(=O)(c1ccccc1)c1n[nH]c2ccc(OCCN3CCCCC3)cc12` [Example 3, 3-Benzenesulfonyl-5-(2-piperidin-1-yl-ethoxy)-1H-indazole] yielded a Ki of 26 to 35 nM.
On the same count and under the same terms, the figure for `CCNCCOc1cccc2c(S(=O)(=O)c3cccc4ccccc34)nn(C)c12` [Example 95] is 0.01 to 10 nM; for `CCN(CC)CCOc1ccc2c(c1)c(S(=O)(=O)c1cccc3ccccc13)nn2Cc1ccccc1` [Example 50, {2-[1-Benzyl-3-(naphthalene-1-sulfonyl)-1H-indazol-5-yloxy]-ethyl}-diethyl-amine] it is 36 to 45 nM; for `O=S(=O)(c1cccc2ccccc12)c1n[nH]c2ccc(OCCCCN3CCCC3)cc12` [Example 67] it is 0.01 to 10 nM.
Same read-out and setting: the figure for `CN(C)CCOc1ccc2c(c1)c(S(=O)(=O)c1cccc3ccccc13)nn2Cc1ccccc1` [Example 51, {2-[1-Benzyl-3-(naphthalene-1-sulfonyl)-1H-indazol-5-yloxy]-ethyl}-dimethyl-amine] is 11 to 25 nM.
On the same count and under the same terms, under `CCN(C)CCOc1ccc2c(c1)c(S(=O)(=O)c1cccc3ccccc13)nn2Cc1ccccc1` [Example 47, {2-[1-Benzyl-3-(naphthalene-1-sulfonyl)-1H-indazol-5-yloxy]-ethyl}-ethyl-methyl-amine] stands 26 to 35 nM; under `O=S(=O)(c1cccc2ccccc12)c1n[nH]c2ccc(OCCCN3CCOCC3)cc12` [Example 25, 5-(3-Morpholin-4-yl-propoxy)-3-(naphthalene-1-sulfonyl)-1H-indazole], 0.01 to 10 nM; under `CCCCNCCOc1cccc2c(S(=O)(=O)c3ccccc3)n[nH]c12` [Example 91], 0.01 to 10 nM.
`O=S(=O)(c1ccccc1)c1n[nH]c2ccc(CCCNC3CC3)cc12` [Example 178, N{3-[3-(Phenylsulfonyl)-1H-indazol-5-yl]propyl}cyclopropanamine trifluoroacetate] registered a Ki of 11 to 25 nM.
On the same count and under the same terms, under `CN(C)CCOc1ccc2c(c1)c(S(=O)(=O)c1cccc3ccccc13)nn2Cc1cccc(Cl)c1` [Example 54, {2-[1-(3-Chloro-benzyl)-3-(naphthalene-1-sulfonyl)-1H-indazol-5-yloxy]-ethyl}-dimethyl-amine] stands 11 to 25 nM.
On the same count and under the same terms, the figure for `O=S(=O)(c1cccc2ccccc12)c1n[nH]c2c(OCCN3CCCCC3)cc(F)cc12` [Example 117] is 0.01 to 10 nM; for `CNCCOc1ccc2c(S(=O)(=O)c3cccc4ccccc34)n[nH]c2c1` [Example 147, N-Methyl-2-{[3-(1-naphthylsulfonyl)-1H-indazol-6-yl]oxy}ethanamine Hydrochloride] it is 11 to 25 nM; for `CCN(CC)CCOc1cccc2c(S(=O)(=O)c3cccc4ccccc34)nn(C)c12` [Example 97] it is 0.01 to 10 nM.
In the case of `CCN(CC)CCCOc1cccc2c(S(=O)(=O)c3cccc4ccccc34)n[nH]c12` [Example 137], the inhibition constant Ki lay within 26 to 35 nM.
Same read-out and setting: the figure for `CN(C)CCC(=O)Nc1ccc2c(S(=O)(=O)c3cccc4ccccc34)n[nH]c2c1` [Example 168, 3-Dimethylamino-N-[3-(naphthalene-1-sulfonyl)-1H-indazol-6-yl]-propionamide hydrochloride] is 36 to 45 nM; for `COc1cc(OCCN2CCCC2)c2[nH]nc(S(=O)(=O)c3cccc4ccccc34)c2c1` [Example 127] it is 11 to 25 nM; for `O=S(=O)(c1cccc2ccccc12)c1nn(Cc2cccc(Cl)c2)c2c(OCCN3CCCCC3)cc(F)cc12` [Example 111] it is greater than 45 nM.
Same read-out and setting: the figure for `CNCCOc1ccc2c(c1)c(S(=O)(=O)c1cccc3ccccc13)nn2C` [Example 40, Methyl-{2-[1-methyl-3-(naphthalene-1-sulfonyl)-1H-indazol-5-yloxy]-ethyl}-amine] is 0.01 to 10 nM; for `Cn1nc(S(=O)(=O)c2cccc3ccccc23)c2cccc(OCCN3CCCCC3)c21` [Example 99] it is 0.01 to 10 nM; for `CCCCNCCOc1cccc2c(S(=O)(=O)c3ccccc3)nn(Cc3cccc(Cl)c3)c12` [Example 85] it is greater than 45 nM.
For `O=S(=O)(c1cccc2ccccc12)c1n[nH]c2cc(OCCN3CCCCC3)ccc12` [Example 149], the inhibition constant Ki was greater than 45 nM.
On the same count and under the same terms, the figure for `CNCCOc1ccc2c(c1)c(S(=O)(=O)c1cccc3ccccc13)nn2Cc1cccc(Cl)c1` [Example 59, {2-[1-(3-Chloro-benzyl)-3-(naphthalene-1-sulfonyl)-1H-indazol-5-yloxy]-ethyl}-methyl-amine] is greater than 45 nM.
Same read-out and setting: the figure for `O=S(=O)(c1cccc2ccccc12)c1n[nH]c2ccc(CN[C@H]3CCNC3)cc12` [Example 154, (3S)—N-{([3-(1-Naphthylsulfonyl)-1H-indazol-5-yl]methyl}pyrrolidin-3-amine Hydrochloride] is 11 to 25 nM.
In turn, `CCN(CC)CCCOc1ccc2[nH]nc(S(=O)(=O)c3cccc4ccccc34)c2c1` [Example 18, Diethyl-{3-[3-(naphthalene-1-sulfonyl)-1H-indazol-5-yloxy]-propyl}-amine] showed a Ki of 0.01 to 10 nM.
Same read-out and setting: the figure for `CCNCCOc1ccc2[nH]nc(S(=O)(=O)c3cccc4ccccc34)c2c1` [Example 32, Ethyl-{2-[3-(naphthalene-1-sulfonyl)-1H-indazol-5-yloxy]-ethyl}-amine] is 0.01 to 10 nM.
The same measure, in the same setting: the figure for `O=S(=O)(c1cccc2ccccc12)c1nn(Cc2cccc(Cl)c2)c2c(OCCCN3CCCC3)cccc12` [Example 133] is 11 to 25 nM.

Test system in another data set: not given
Assay: not given
Details: not given
Broadly, the melting point is the temperature of the solid-liquid transition. As for `O=S(=O)(c1cccc2ccccc12)c1n[nH]c2ccc(CN[C@H]3CCNC3)cc12` (as salt: hydrochloride) [Example 154, (3S)—N-{([3-(1-Naphthylsulfonyl)-1H-indazol-5-yl]methyl}pyrrolidin-3-amine Hydrochloride], the melting point is greater than 200 °C.
The same measure, in the same setting: under `CC(C)NCCCc1ccc2[nH]nc(S(=O)(=O)c3ccccc3)c2c1` (as salt: trifluoroacetate) [Example 179, N-Isopropyl-N-{3-[3-(phenylsulfonyl)-1H-indazol-5-yl]propyl}amine trifluoroacetate] stands 169 to 171 °C; under `CN1CCN(Cc2ccc3[nH]nc(S(=O)(=O)c4cccc5ccccc45)c3c2)CC1` (as salt: HCl) [Example 196], greater than 200 °C; under `CCNCCOc1ccc2c(c1)c(S(=O)(=O)c1cccc3ccccc13)nn2C` (as salt: hydrochloride) [Example 44, Ethyl-{2-[1-methyl-3-(naphthalene-1-sulfonyl)-1H-indazol-5-yloxy]-ethyl}-amine], 276 to 277 °C (dec.).
